Columns and labels:
[1] = system: A. niger, B. cinerea, A. alternata, and P. digitatum; assay: Ability of commercially available VOC compounds to control growth of four test fungi; assay type: cell-based; details: single commercially available compound
Procedure: (§1) All chemical compounds were purchased from Sigma (Rehovot, Israel) and were of the highest purity available. The bioactivity of the mixtures combined on the VOCs identified, was determined as follows: Petri dishes (90 mm, 80 mL air volume) containing 15 mL of media (PDA amended with 12 μg/mL tetracycline) were inoculated (triplicates, 2 plugs each) with the test fungi A. alternata and B. cinerea (in the same plate), P. digitatum and A. niger (in separate plates). A cup of an Eppendorf tube was placed in the middle of the plate to which increasing volumes (0-200 μL) of the mixture was added. Then, the plates were sealed with parafilm and incubated at room temperature for two days before comparing the growth of the test fungi in those plates to control plates in the absence of the mixture. The ability of two mixtures: Mixture A and Mixture B to control other plant pathogenic fungi was determined as described above except that the concentration of the mixture was constant (1 mL/L) and the growth inhibition was estimated after 6 days. The viability of the test fungi after exposure to the mixtures was examined as described for D. concentrica.
(§2) The activity of each chemical component of the mixture was examined separately as described for the mixtures. […]

M. javanica J2 larvae = assay: Phenotype of second stage juveniles under a stereomicroscope after exposure; assay type: in vivo, Meloidogyne javanica; details: 0.05 mL/L preloaded to 25 mg of perlite particles; 48 hours at 25° C.
Procedure: FIGS. 20A-D show second stage juveniles' phenotype following exposure to D. concentrica culture, synthetic mixture, and the compound 4-heptanone. The nematodes were exposed to each condition for 48 hours at 25° C. in the dark before visualization. FIG. 20A. Control—non treated nematodes. FIG. 20B. Nematodes exposed to three D. concentrica culture plates (50 mm in diameter with 5 mL growth medium) pre-grown for 4 days. FIG. 20C. Nematodes exposed to 0.25 mL/L of synthetic mixture preloaded to 125 mg of perlite particles. FIG. 20D. Nematodes exposed to 0.05 mL/L of the compound 4-heptanone preloaded to 25 mg of perlite particles. The bar indicates […].
The effects of D. concentrica, synthetic mixture and the pure compound 4-heptanone were also examined visually under a stereomicroscope. The results are presented in FIGS. 20A-D wherein FIG. 20A represents non-treated nematodes; FIG. 20B represents nematodes exposed to three D. concentrica culture plates (50 mm in diameter with 5 mL growth medium) pre-grown for 4 days; FIG. 20C represents nematodes exposed to 0.25 mL/L of synthetic mixture preloaded to 125 mg of perlite particles; FIG. 20D represents nematodes exposed to 0.05 mL/L of the compound 4-heptanone preloaded to 25 mg of perlite particles.

Aspergillus niger = assay: Chemical mixtures bioactivity test in sealed Petri dish; assay type: cell-based; details: single compound
Procedure: as §1, §2

Penicillium digitatum = assay: as above; assay type: cell-based; details: single compound
Procedure: as §1, §2

For `COc1cc2ccccc2cc1O` [3-methoxy-2-naphthol], the “ability to control the growth of A. niger, B. cinerea, A. alternata, and P. digitatum” value [1] was “failed to inhibit fungal growth”.

In the case of `CCCC(=O)CCC` [Mixture 4-heptanone, 4-heptanone], the “nematode phenotype (body shape, viability)” value (M. javanica J2 larvae) is reported as “most of the nematodes demonstrated the typical straight body shape with nearly no curved appearance”.

With `OCCc1ccccc1` [phenyl ethyl alcohol] the “ability to control the growth of A. niger, B. cinerea, A. alternata, and P. digitatum” value [1] was “failed to inhibit fungal growth”.

methyl-1,4-cyclohexadiene was tested, and the “growth inhibition of A. niger” value (Aspergillus niger) was 10.8% and the “growth inhibition of P. digitatum” value (Penicillium digitatum) was 3.1%.
